Here are results for one compound from patent publication US10251843B2, “Crosslinked nanoparticle composition” (priority 2015, dated 2019).

The nature of data set [1]: In vivo pharmacokinetics, serum amoxicillin after oral gavage. The settings on record: ICR mice. The procedure: The experiments were performed on male and female ICR mice (6-8 weeks) to evaluate the amoxicillin concentration in serum. […] Each testing group contained 10 mice (five male and five female). The concentration of amoxicillin in each collected serum sample was determined by HPLC.

The conditions of data set [2]: mice, reported; cited from earlier work.

Take `CC1(C)S[C@@H]2[C@H](NC(=O)[C@H](N)c3ccc(O)cc3)C(=O)N2[C@H]1C(=O)O.O.O.O` [free amoxicillin, (2S,5R,6R)-6-[(R)-(−)-2-amino-2-(p-hydroxyphenyl)acetamido]-3,3-dimethyl-7-oxo-4-thia-1-azabicyclo[3.2.0]heptane-2-carboxylic acid trihydrate]: the “time at which serum concentration of amoxicillin peaked” value in data set [1] (2 mg amoxicillin) was 15 min. Also, the “serum concentration as % of the peak value” in data set [1] (after 1 hour) is “below 50%”; in data set [1] (after 2 hours), “below 20%”. Also, the “area under the curve (total measured amount of drug in the circulation)” value in data set [1] (compared with the nanoparticle formulation) is reported as “smaller area”. In addition, the “plasma half-life of amoxicillin” value in data set [2] is “about 40 minutes”.
